Assay results: patent US12077503B2, “Substituted cyclic amides and their use as herbicides” (FMC CORPORATION, priority 2015, dated 2024)

What was measured:
Type in all cases: in vivo
corn (Zea mays) = test: Test A postemergence; conditions: postemergence; for Corn plant response rating: 125 g ai/ha, visual injury rating on 0 to 100 scale (0 no effect, 100 complete control), approx. 10 d; for Plant response rating, Corn: 500 g ai/ha, 0 to 100 scale, 0 no effect, 100 complete control
Method in brief: (§1)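 Ratings of 0 (no effect) to 100 (complete control) come from visual comparison with untreated controls roughly 10 d after treatment. Test chemicals, formulated in a non-phytotoxic solvent mixture with surfactant, were applied either as a preemergence directed soil spray on seeded soil or postemergence to one- to two-leaf plants 2 to 10 cm tall.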

[1] = system: barnyardgrass (Echinochloa crus-galli); test: Test A postemergence; conditions: postemergence; for Barnyardgrass plant response rating: 125 g ai/ha, visual injury rating on 0 to 100 scale (0 no effect, 100 complete control), approx. 10 d; for Plant response rating, Barnyardgrass: 500 g ai/ha, 0 to 100 scale, 0 no effect, 100 complete control
Method in brief: as §1

[2] = system: pigweed (Amaranthus retroflexus); test: Test A postemergence; conditions: for Pigweed plant response rating: 125 g ai/ha, visual injury rating on 0 to 100 scale (0 no effect, 100 complete control), approx. 10 d; for Plant response rating, Pigweed: 500 g ai/ha
Method in brief: as §1

[3] = system: giant foxtail (Setaria faberii); test: Test A postemergence; conditions: for Foxtail, Giant plant response rating: 125 g ai/ha, visual injury rating on 0 to 100 scale (0 no effect, 100 complete control), approx. 10 d; for Plant response rating, Foxtail, Giant: 500 g ai/ha
Method in brief: as §1

[4] = system: Galium (catchweed bedstraw, Galium aparine); test: Test A postemergence; conditions: for Galium plant response rating: 125 g ai/ha, visual injury rating on 0 to 100 scale (0 no effect, 100 complete control), approx. 10 d; for Plant response rating, Galium: 500 g ai/ha
Method in brief: as §1

[5] = system: blackgrass (Alopecurus myosuroides); test: Test A postemergence; conditions: postemergence; for Blackgrass plant response rating: 125 g ai/ha, visual injury rating on 0 to 100 scale (0 no effect, 100 complete control), approx. 10 d; for Plant response rating, Blackgrass: 500 g ai/ha, 0 to 100 scale, 0 no effect, 100 complete control
Method in brief: as §1

Kochia (Kochia scoparia) [6] = test: Test A postemergence; conditions: for Kochia plant response rating: 125 g ai/ha, visual injury rating on 0 to 100 scale (0 no effect, 100 complete control), approx. 10 d; for Plant response rating, Kochia: 500 g ai/ha
Method in brief: as §1

[7] = system: ryegrass, Italian (Italian ryegrass, Lolium multiflorum); test: Test A postemergence; conditions: for Ryegrass, Italian plant response rating: 125 g ai/ha, visual injury rating on 0 to 100 scale (0 no effect, 100 complete control), approx. 10 d; for Plant response rating, Ryegrass, Italian: 500 g ai/ha
Method in brief: as §1

[8] = system: wheat (Triticum aestivum); test: Test A postemergence; conditions: for Wheat plant response rating: 125 g ai/ha, visual injury rating on 0 to 100 scale (0 no effect, 100 complete control), approx. 10 d; for Plant response rating, Wheat: 500 g ai/ha
Method in brief: as §1

[9] = system: ragweed (common ragweed, Ambrosia elatior); test: Test A postemergence; conditions: for Ragweed plant response rating: 125 g ai/ha, visual injury rating on 0 to 100 scale (0 no effect, 100 complete control), approx. 10 d; for Plant response rating, Ragweed: 500 g ai/ha
Method in brief: as §1

[10] = system: barnyardgrass (Echinochloa crus-galli); test: Test B flooded paddy test; conditions: Flood, 250 g ai/ha; 0 to 100 scale where 0 is no effect and 100 is complete control; 13 to 15 d
Method in brief: (§2)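 Percent control, visually estimated after 13–15 d in the greenhouse on a 0–100 basis, compares treated pots with untreated ones; compound was put into paddy water 3 cm above the soil when plants had two leaves.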

[11] = system: ducksalad (Heteranthera limosa); test: Test B flooded paddy test; conditions: Flood, 250 g ai/ha; 0 to 100 scale where 0 is no effect and 100 is complete control; 13 to 15 d
Method in brief: as §2

rice (Oryra sativa) = test: Test B flooded paddy test; conditions: Flood, 250 g ai/ha; 0 to 100 scale where 0 is no effect and 100 is complete control; 13 to 15 d
Method in brief: as §2

[12] = system: sedge, umbrella (small-flower umbrella sedge, Cyperus difformis); test: Test B flooded paddy test; conditions: Flood, 250 g ai/ha; 0 to 100 scale where 0 is no effect and 100 is complete control; 13 to 15 d
Method in brief: as §2

[13] = system: barnyardgrass (Echinochloa crus-galli); test: Test A preemergence; conditions: for Plant response rating, Barnyardgrass: 125 g ai/ha, preemergence, 0 to 100 scale (0 no effect, 100 complete control); for Barnyardgrass plant response rating (0 to 100 scale, 0 is no effect, 100 is complete control): Preemergence, 500 g ai/ha, visual injury approx. 10 d
Method in brief: as §1

[14] = system: pigweed (Amaranthus retroflexus); test: Test A preemergence; conditions: for Plant response rating, Pigweed: 125 g ai/ha; for Pigweed plant response rating (0 to 100 scale, 0 is no effect, 100 is complete control): 500 g ai/ha, visual injury approx. 10 d
[15] = system: giant foxtail (Setaria faberii); test: Test A preemergence; conditions: for Plant response rating, Foxtail, Giant: 125 g ai/ha, preemergence, 0 to 100 scale (0 no effect, 100 complete control); for Foxtail, Giant plant response rating (0 to 100 scale, 0 is no effect, 100 is complete control): Preemergence, 500 g ai/ha, visual injury approx. 10 d
Method in brief: as §1

Kochia (Kochia scoparia) [16] = test: Test A preemergence; conditions: for Plant response rating, Kochia: 125 g ai/ha, preemergence, 0 to 100 scale (0 no effect, 100 complete control); for Kochia plant response rating (0 to 100 scale, 0 is no effect, 100 is complete control): Preemergence, 500 g ai/ha, visual injury approx. 10 d
Method in brief: as §1

[17] = system: ryegrass, Italian (Italian ryegrass, Lolium multiflorum); test: Test A preemergence; conditions: for Plant response rating, Ryegrass, Italian: 125 g ai/ha; for Ryegrass, Italian plant response rating (0 to 100 scale, 0 is no effect, 100 is complete control): 500 g ai/ha, visual injury approx. 10 d
Method in brief: as §1

[18] = system: ragweed (common ragweed, Ambrosia elatior); test: Test A preemergence; conditions: for Plant response rating, Ragweed: 125 g ai/ha; for Ragweed plant response rating (0 to 100 scale, 0 is no effect, 100 is complete control): 500 g ai/ha, visual injury approx. 10 d
Method in brief: as §1

[19] = Postemergence, 0 to 100 scale where 0 is no effect and 100 is complete control
[20] = Preemergence, visual injury after approximately 10 d, 0 to 100 scale where 0 is no effect and 100 is complete control
[21] = postemergence, 0 to 100 scale, 0 no effect, 100 complete control
[22] = preemergence, 0 to 100 scale (0 no effect, 100 complete control)

Row | Structure (SMILES) | Corn plant response rating (corn (Zea mays)) | Plant response rating, Corn (corn (Zea mays)) | Barnyardgrass plant response rating [1] | Plant response rating, Barnyardgrass [1] | Pigweed plant response rating ([2]; postemergence) | Foxtail, Giant plant response rating ([3]; postemergence) | Galium plant response rating ([4]; postemergence) | Blackgrass plant response rating [5] | Plant response rating, Blackgrass [5] | Kochia plant response rating (Kochia (Kochia scoparia) [6]; postemergence) | Ryegrass, Italian plant response rating ([7]; postemergence) | Wheat plant response rating ([8]; postemergence) | Ragweed plant response rating ([9]; postemergence) | Plant response rating, Barnyardgrass [10] | Plant response rating, Ducksalad [11] | Plant response rating, Rice (rice (Oryra sativa)) | Plant response rating, Sedge, Umbrella [12] | Plant response rating, Barnyardgrass [13] | Barnyardgrass plant response rating (0 to 100 scale, 0 is no effect, 100 is complete control) [13] | Pigweed plant response rating (0 to 100 scale, 0 is no effect, 100 is complete control) ([14]; Preemergence) | further results
1 | C=C(C)CN1CC(c2cccc(C(F)(F)F)c2)C(C(=O)Nc2cccc(F)c2F)C1=O (stereo not drawn) [Compound 479] | 0 | 0 | 0 | 50 | 0 | 0 | 0 | 0 | 40 | 0 | 0 | 0 | 0 | 0 | 20 | 0 | 0 | 0 | 30 | 0 | Plant response rating, Pigweed [2, 19]: 0; Plant response rating, Foxtail, Giant [3, 19]: 60; Plant response rating, Galium [4, 19]: 0; Plant response rating, Kochia (Kochia (Kochia scoparia) [6]; [19]): 0; Plant response rating, Ryegrass, Italian [7, 19]: 0; Plant response rating, Wheat [8, 19]: 40; Plant response rating, Ragweed [9, 19]: 0; Plant response rating, Pigweed [14, 20]: 0; Plant response rating, Foxtail, Giant [15]: 80; Foxtail, Giant plant response rating (0 to 100 scale, 0 is no effect, 100 is complete control) [15]: 90; Plant response rating, Kochia (Kochia (Kochia scoparia) [16]): 0; Kochia plant response rating (0 to 100 scale, 0 is no effect, 100 is complete control) (Kochia (Kochia scoparia) [16]): 0; Plant response rating, Ryegrass, Italian [17, 20]: 0; Ryegrass, Italian plant response rating (0 to 100 scale, 0 is no effect, 100 is complete control) ([17]; Preemergence): 0; Plant response rating, Ragweed [18, 20]: 0; Ragweed plant response rating (0 to 100 scale, 0 is no effect, 100 is complete control) ([18]; Preemergence): 0
2 | CS(=O)(=O)c1ccccc1NC(=O)C1C(=O)NCC1c1ccc(Br)cc1 (stereo not drawn) [Compound 452] | 0 | 0 | 20 | 70 | 50 | 60 | 50 | 0 | 60 | 50 | 0 | 0 | 0 | 0 | 100 | 0 | 0 | 60 | 90 | 90 | Plant response rating, Pigweed [2, 21]: 70; Plant response rating, Foxtail, Giant [3, 21]: 80; Plant response rating, Galium [4, 21]: 50; Plant response rating, Kochia (Kochia (Kochia scoparia) [6]; [21]): 70; Plant response rating, Ryegrass, Italian [7, 21]: 20; Plant response rating, Wheat [8, 21]: 20; Plant response rating, Ragweed [9, 21]: 30; Plant response rating, Pigweed [14, 22]: 80; Plant response rating, Foxtail, Giant [15]: 90; Foxtail, Giant plant response rating (0 to 100 scale, 0 is no effect, 100 is complete control) [15]: 90; Plant response rating, Kochia (Kochia (Kochia scoparia) [16]): 60; Kochia plant response rating (0 to 100 scale, 0 is no effect, 100 is complete control) (Kochia (Kochia scoparia) [16]): 70; Plant response rating, Ryegrass, Italian [17, 22]: 0; Ryegrass, Italian plant response rating (0 to 100 scale, 0 is no effect, 100 is complete control) ([17]; Preemergence): 30; Plant response rating, Ragweed [18, 22]: 20; Ragweed plant response rating (0 to 100 scale, 0 is no effect, 100 is complete control) ([18]; Preemergence): 60
